Consider eight molecules from patent publication EP0361954A2, “CRF Analogs” (THE SALK INSTITUTE FOR BIOLOGICAL STUDIES, priority 1988, dated 1990).

Non-standard residues stand in square brackets, D forms with d. Nle = CCCC[C@H](N)C(=O)O

The test system of assay [1] is cultured rat pituitary cells. Description: Secretion of ACTH and β-endorphin by cultured rat pituitary cells (procedure of Endocrinology, 91, 562 (1972)). It counts as cell-based. Particulars: for stimulation of the secretion of ACTH and β-END-LI: testing by the general procedure of Example III; for EC50: stimulation of secretion of ACTH and β-endorphin, cultured rat pituitary cells, read-out: Half-maximal responses (concentration of the peptide). The protocol: (§1) The synthetic peptide [D-Glu²⁰]-oCRF is examined for its effects on the secretion of ACTH and β-endorphin in vitro and was also in vivo. The potency of synthetic [D-Glu²⁰]-oCRF to stimulate the secretion of ACTH and β-endorphin by cultured rat pituitary cells is measured using the procedure as generally set forth in Endocrinology, 91, 562 (1972) and compared against synthetic oCRF. […] In vivo testing is carried out using the general procedure set forth in C.

Assay [2] in a line: In vivo testing (general procedure of C. Rivier et al., Science, 218, 377 (1982)): duration of potency and blood pressure. Conditions: for lowering of blood pressure: general procedure of Example III. The protocol:
as §1

For the molecule `CC[C@H](C)[C@H](NC(=O)[C@@H](NC(=O)[C@H](CC(=O)O)NC(=O)[C@H](CC(C)C)NC(=O)[C@H](CC(C)C)NC(=O)[C@H](CC(C)C)NC(=O)[C@H](CCCNC(=N)N)NC(=O)[C@H](CC(N)=O)NC(=O)[C@H](CC(N)=O)NC(=O)[C@H](C)NC(=O)[C@H](C)NC(=O)[C@H](CCC(N)=O)NC(=O)[C@H](CCC(=O)O)NC(=O)[C@H](CCCCN)NC(=O)[C@H](CCC(=O)O)NC(=O)[C@H](CCCCN)NC(=O)[C@H](CCC(=O)O)NC(=O)[C@H](CCC(N)=O)NC(=O)[C@H](CCCCN)NC(=O)[C@H](CCCNC(=N)N)NC(=O)[C@H](C)NC(=O)[C@@H](CCC(=O)O)NC(=O)[C@@H](NC(=O)[C@H](CCSC)NC(=O)[C@H](CCCCN)NC(=O)[C@H](CCCNC(=N)N)NC(=O)[C@H](CC(C)C)NC(=O)[C@H](CC(C)C)NC(=O)[C@H](CCC(=O)O)NC(=O)[C@@H](Cc1ccccc1)NC(=O)[C@H](CO)NC(=O)[C@H](CC(C)C)NC(=O)[C@H](CC(=O)O)NC(=O)[C@@H](NC(=O)[C@H](CO)NC(=O)[C@@H](NC(=O)[C@@H]1CCCN1C(=O)[C@@H]1CCCN1C(=O)CNC(=O)[C@@H]1CCC(=O)N1)[C@@H](C)CC)[C@@H](C)CC)[C@@H](C)CC)[C@@H](C)CC)C(N)=O`, the “stimulation of the secretion of ACTH and β-END-LI” value (“stimulation” for short) in assay [1] is “stimulates the secretion of ACTH and β-END-LI”. Moreover, the “lowering of blood pressure” value in assay [2] is listed as “very significant lowering of blood pressure”.
For `CCCC[C@H](NC(=O)[C@@H](CCC(=O)O)NC(=O)[C@H](CC(C)C)NC(=O)[C@@H](NC(=O)[C@H](CCC(=O)O)NC(=O)[C@H](CCCNC(=N)N)NC(=O)[C@H](CC(C)C)NC(=O)[C@H](CC(C)C)NC(=O)[C@H](Cc1c[nH]cn1)NC(=O)[C@H](Cc1ccccc1)NC(=O)[C@@H](NC(=O)[C@H](CC(C)C)NC(=O)[C@H](CC(=O)O)NC(=O)[C@H](CC(C)C)NC(=O)[C@H](CO)NC(=O)[C@@H](NC(=O)[C@@H]1CCCN1C(=O)[C@@H]1CCCN1C(=O)[C@H](CCC(=O)O)NC(=O)[C@H](CCC(N)=O)NC(=O)[C@@H](N)CO)[C@@H](C)CC)[C@@H](C)O)C(C)C)C(=O)N[C@H](C(=O)N[C@@H](CCCCN)C(=O)N[C@@H](C)C(=O)N[C@@H](CC(=O)O)C(=O)N[C@@H](CCC(N)=O)C(=O)N[C@@H](CC(C)C)C(=O)N[C@@H](C)C(=O)N[C@@H](CCC(N)=O)C(=O)N[C@@H](CCC(N)=O)C(=O)N[C@@H](C)C(=O)N[C@H](Cc1c[nH]cn1)C(=O)N[C@@H](CO)C(=O)N[C@@H](CC(N)=O)C(=O)N[C@@H](CCCNC(=N)N)C(=O)N[C@@H](CCCCN)C(=O)N[C@@H](CC(C)C)C(=O)N[C@@H](CC(C)C)C(=O)N[C@@H](CC(=O)O)C(=O)N[C@H](C(=O)N[C@@H](C)C(N)=O)[C@@H](C)CC)[C@@H](C)O` [[D-Glu²⁰, Nle²¹, D-His³²]-oCRF], the “lowering of blood pressure” value in assay [2] is “very significant lowering of blood pressure”.
`CC[C@H](C)[C@H](NC(=O)[C@H](CC(=O)O)NC(=O)[C@H](CC(C)C)NC(=O)[C@H](CC(C)C)NC(=O)[C@H](CCCCN)NC(=O)[C@H](CCCNC(=N)N)NC(=O)[C@H](CC(N)=O)NC(=O)[C@H](CO)NC(=O)[C@H](Cc1c[nH]cn1)NC(=O)[C@H](C)NC(=O)[C@H](CCC(N)=O)NC(=O)[C@H](CCC(N)=O)NC(=O)[C@H](C)NC(=O)[C@H](CC(C)C)NC(=O)[C@H](CCC(N)=O)NC(=O)[C@H](CC(=O)O)NC(=O)[C@H](C)NC(=O)[C@H](CCCCN)NC(=O)[C@@H](NC(=O)[C@H](CCSC)NC(=O)[C@@H](CCC(=O)O)NC(=O)[C@H](CC(C)C)NC(=O)[C@@H](NC(=O)[C@H](CCC(=O)O)NC(=O)[C@H](CCCNC(=N)N)NC(=O)[C@H](CC(C)C)NC(=O)[C@H](CC(C)C)NC(=O)[C@H](Cc1c[nH]cn1)NC(=O)[C@H](Cc1ccccc1)NC(=O)[C@@H](NC(=O)[C@H](CC(C)C)NC(=O)[C@H](CC(=O)O)NC(=O)[C@H](CC(C)C)NC(=O)[C@H](CO)NC(=O)[C@@H](NC(=O)[C@@H]1CCCN1C(=O)[C@@H]1CCCN1C(=O)[C@H](CCC(=O)O)NC(=O)[C@H](CCC(N)=O)NC(=O)[C@@H](N)CO)[C@@H](C)CC)[C@@H](C)O)C(C)C)[C@@H](C)O)C(=O)N[C@@H](C)C(N)=O` [[D-Glu²⁰]-oCRF]: in assay [1] (in vitro, compared against synthetic oCRF / native peptides), the “potency compared with the native hormone” value was “about twice as potent as the native hormone”. In addition, the “secretory response to maximal concentrations” value in assay [1] (maximal (1-5 nM) concentrations) is recorded as “at a plateau level”. The EC50 in assay [1] is approximately 0.17 nM. For the same molecule, in assay [2], the duration of potency entry was “longer duration of potency” and the “lowering of blood pressure” value is recorded as “significant lowering of blood pressure”.
Regarding `CC[C@H](C)[C@H](NC(=O)[C@H](CC(=O)O)NC(=O)[C@H](CC(C)C)NC(=O)[C@H](CC(C)C)NC(=O)[C@H](CCCCN)NC(=O)[C@H](CCCNC(=N)N)NC(=O)[C@H](CC(N)=O)NC(=O)[C@H](CO)NC(=O)[C@H](Cc1c[nH]cn1)NC(=O)[C@H](C)NC(=O)[C@H](CCC(N)=O)NC(=O)[C@H](CCC(N)=O)NC(=O)[C@H](C)NC(=O)[C@H](CC(C)C)NC(=O)[C@H](CCC(N)=O)NC(=O)[C@H](CC(=O)O)NC(=O)[C@H](C)NC(=O)[C@H](CCCCN)NC(=O)[C@@H](NC(=O)[C@H](CCSC)NC(=O)[C@H](CCC(=O)O)NC(=O)[C@H](CC(C)C)NC(=O)[C@@H](NC(=O)[C@H](CCC(=O)O)NC(=O)[C@H](CCCNC(=N)N)NC(=O)[C@H](CC(C)C)NC(=O)[C@H](CC(C)C)NC(=O)[C@H](Cc1c[nH]cn1)NC(=O)[C@H](Cc1ccccc1)NC(=O)[C@@H](NC(=O)[C@H](CC(C)C)NC(=O)[C@H](CC(=O)O)NC(=O)[C@H](CC(C)C)NC(=O)[C@H](CO)NC(=O)[C@@H](NC(=O)[C@@H]1CCCN1C(=O)[C@@H]1CCCN1C(=O)[C@H](CCC(=O)O)NC(=O)[C@H](CCC(N)=O)NC(=O)[C@@H](N)CO)[C@@H](C)CC)[C@@H](C)O)C(C)C)[C@@H](C)O)C(=O)N[C@@H](C)C(N)=O` [oCRF, reference compound], in assay [1], the EC50 is approximately 0.25 nM.
As to “Acr-Glu-Glu-Pro-Pro-Ile-Ser-Leu-Asp-Leu-Thr-D-Phe-His-Leu-Leu-Arg-Glu-Val-Leu-Glu-Nle-Ala-Arg-Ala-Glu-Gln-Leu-Ala-Gln-Gln-Ala-D-His-Ser-Asn-Arg-Lys-Leu-NIe-Glu-Ile-Ile-NH₂”, the “stimulation” value in assay [1] was “stimulates the secretion of ACTH and β-END-LI”. Besides, the “lowering of blood pressure” value in assay [2] was “very significant lowering of blood pressure”.
As for “For-Ser-GlU-GlU-Pro-Pro-Ile-Ser-Leu-Asp-Leu-Thr-D-Phe-His-Leu-Leu-Arg-Glu-Val-Leu-Glu-Nle-Ala-Arg-Ala-Glu-Gln-Leu-Ala-Gln-Gln-Ala-D-His-Ser-Asn-Arg-Lys-Leu-Nle-Glu-Ile-Ile-NH₂”, the “stimulation” value in assay [1] was “stimulates the secretion of ACTH and β-END-LI”. In assay [2], the “lowering of blood pressure” value is recorded as “very significant lowering of blood pressure”.
Take “H-GlU-Pro-Pro-Ile-Ser-Leu-Asp-Leu-Thr-D-Phe-His-Leu-Leu-Arg-Glu-Val-Leu-D-GlU-Met-Ala-Arg-Ala-Glu-Gln-Leu-Ala-Gln-Gln-Ala-His-Ser-Asn-Arg-Lys-Leu-Met-Glu-Ile-Ile-NH₂ [[D-Phe¹², D-Glu²⁰]-rCRF(3-41)]”: in assay [1], the “stimulation” value is “stimulates the secretion of ACTH and β-END-LI”. The “lowering of blood pressure” value in assay [2] is listed as “very significant lowering of blood pressure”.
Consider “H-SQEPPISLDLTFHLLREVL[dE][Nle]TK[dA]DQLAQQAHSNRKL[Nle]DIA-NH2 [[D-Glu²⁰, D-Ala²⁴, Nle^21,38]-oCRF]”, for which the “lowering of blood pressure” value in assay [2] is listed as “very significant lowering of blood pressure”.
